Experimental data from the METLIN SMRT retention time set (Domingo-Almenara et al. 2019).

Assay: gradient 5% acetonitrile 3 min, to 50% in 2 min, to 85% in 15 min, held 3 min, 100 µL/min
Conditions: column: Zorbax Extend-C18 2.1 x 50 mm; eluents: water / acetonitrile, 0.1% formic acid
Outline: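 In both positive and negative ionization mode, a quadrupole time-of-flight mass spectrometer coupled to HPLC analyzed pure standards run in mixtures of ~100 molecules. The Zorbax Extend-C18 column (2.1 × 50 mm, 1.8 μm) was operated at 100 μL/min with water and acetonitrile, each containing 0.1% formic acid. The dead volume was 40 μL and the dwell volume 900 μL. Retention time came from adduct peaks that were computationally picked and individually inspected by hand.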

Compound	RP-LC retention time
COc1ccc(Cl)cc1C(=O)Nc1cnc(N2CCCCC2)nc1	1070 s
Cc1ccc(NC(=O)N2CCCC(C)(C(=O)NCc3ccccc3C)C2)c(Cl)c1 (centres undefined)	984 s
O=C(O)c1ccc2c(c1Sc1ccccc1)C(=O)c1ccccc1C2=O	887 s
CCSc1nc2ccc(NS(=O)(=O)Cc3ccc(Cl)cc3)cc2s1	1080 s
CC1(C)C(=O)N(CC(=O)Nc2ccccc2Cl)c2ccccc21	912 s
Cc1ccc(Cn2c(=O)n(CCNC(=O)C3CC3)c3ncccc32)cc1	740 s
Cc1ccc(-c2cc(C(=O)NCCCN3CCN(C)CC3)c(C)[nH]2)cc1C	610 s
COc1ccc(OC)c(NS(=O)(=O)c2cccs2)c1	777 s
CCC(=O)Nc1ccc(-n2cnc(C(=O)NCC3CCCO3)c2)nc1 (centres undefined)	614 s
COc1ccc(-c2nc3cccnc3n2C2CCN(C(=O)Nc3cccc(OC)c3)C2)cc1 (centres undefined)	746 s
CCOC(=O)CC(=O)CSc1nc(-c2ccccc2)ns1	993 s
CCN1C(=O)c2cccnc2Sc2cc(CNC(=O)c3cccnc3SC)ccc21	721 s
NC(=O)C(c1ccccc1)(c1ccccc1)[C@@H]1CCN(CCc2ccc3c(c2)CCO3)C1	740 s
COc1ccc(CNC(=O)C2CCN(c3nccnc3Sc3ccccc3)CC2)c(OC)c1	983 s
O=C(NCCc1cnc[nH]1)c1nc(Nc2ccc(F)cc2)c2ccccc2n1	589 s
Cc1ccc(Nc2c(-c3ccc(N4CCOCC4)cc3)nc3cc(C)ccn23)cc1	769 s
COC(=O)c1ccc(Cn2cnc3nc4c(cc3c2=O)CC(C)CC4)cc1 (centres undefined)	852 s
CCCn1c(=O)sc2cc(S(=O)(=O)N3CCC(C(=O)Nc4ccc(C)cc4C)CC3)ccc21	997 s
CC(C)(C)CC(=O)N1CCc2nc(-c3ccccc3)ncc2C1	934 s
CCC(C(=O)NCCCOC)n1c2ccccc2c2cnn(C)c(=O)c21 (centres undefined)	749 s
Cc1ccc2nc(-c3ccc(N4CCOCC4)cc3)c(Nc3ccccc3C)n2c1	755 s
Cc1cc(N2CCN(C)CC2)n2nc(CN3CCN(c4ccc(Cl)cc4)CC3)nc2n1	572 s

Compound	RP-LC retention time
Cc1cccc(CNc2nnc(-c3nc(C4CC4)no3)c3ccccc23)c1	938 s
CCNC(=O)c1nc(C(=O)NCc2ccc(C)cc2)cs1	811 s
CC(C)n1cc(CN2CCOCCNC(=O)CC2)c2ccccc21	631 s
COCCn1cc(C(=O)Nc2ccccc2)c2nn(-c3ccccc3)c(=O)c-2c1	937 s
CC1CCN(C(=O)c2cn(-c3cc(-c4nc(C5CC5)no4)ccn3)cn2)CC1	907 s
COCCOC1CCN(S(=O)(=O)Cc2ccccc2F)CC1	809 s
COc1ccc(N2CCN(C(=O)c3cn4ccccc4n3)CC2)cc1	603 s
c1ccc(CC2CCN(Cc3nc(-c4ccc(N5CCCCC5)nc4)no3)CC2)cc1	802 s
COc1cccc(-c2nnc(Cc3nc(-c4cccc(C(F)(F)F)c4)no3)o2)c1	1100 s
COCc1c(C(=O)O)nnn1-c1cc(C)ccc1F	708 s
CC1CCN(c2cc(-c3noc(C(=O)N4CCc5ccccc5C4)n3)ccn2)CC1	1010 s
CC(=O)N1CCC(C(=O)Nc2nnc(C3CC3)s2)CC1	605 s
CCn1c(=O)c(C(=O)N2CCN(c3cc(C)ccc3C)CC2)nc2cccnc21	1040 s
COc1ccc(-n2ccn3cc(-c4ccc(OC)c(OC)c4)nc3c2=O)cc1Cl	780 s
OCCOCCNCc1ccc(-c2ccccc2F)o1	616 s
CCn1c(=O)sc2cc(S(=O)(=O)N3CCC(C(=O)NCCC4=CCCCC4)CC3)ccc21	958 s
CCOC(=O)c1noc2nc(C)nc(Nc3ccc(OCC)cc3)c12	1130 s
CN(C)C(=O)c1ccc2c(c1)N(CC(=O)N1CCN(c3ccccc3)CC1)C(=O)C1CCCCN21 (centres undefined)	778 s
Cc1[nH]nc(-c2ccc(S(=O)(=O)NCCc3ccc(S(N)(=O)=O)cc3)o2)c1C	697 s
Nc1ccc2c(c1)nnn2-c1ccccc1	708 s
Cc1ccc(F)cc1NC(=O)Cn1nc(N2CCC(C)CC2)c2ccccc2c1=O	1180 s
COC[C@@H]1CN(c2cnccn2)C[C@H]1C(=O)NCc1ccc(C)o1	636 s
